Laboratory results published in ChEMBL document CHEMBL1944604, “Aminopurine based JNK inhibitors for the prevention of ischemia reperfusion injury” (Bioorg Med Chem Lett, 2012).

Columns and labels:
[1] = Metabolic stability of the compound in rat liver microsomes assessed as compound remaining at 3 uM after 30 mins; format: ADME, Microsome; details: read-out: Stability
Cytochrome P450 3A4 [2] = molecular target: T1, Cytochrome P450 3A4 (Homo sapiens, UniProt P08684); assay: Inhibition of recombinant CYP3A4 up to 30 uM; format: ADME; details: recombinant enzyme
T1 sequence (P08684 whole entry): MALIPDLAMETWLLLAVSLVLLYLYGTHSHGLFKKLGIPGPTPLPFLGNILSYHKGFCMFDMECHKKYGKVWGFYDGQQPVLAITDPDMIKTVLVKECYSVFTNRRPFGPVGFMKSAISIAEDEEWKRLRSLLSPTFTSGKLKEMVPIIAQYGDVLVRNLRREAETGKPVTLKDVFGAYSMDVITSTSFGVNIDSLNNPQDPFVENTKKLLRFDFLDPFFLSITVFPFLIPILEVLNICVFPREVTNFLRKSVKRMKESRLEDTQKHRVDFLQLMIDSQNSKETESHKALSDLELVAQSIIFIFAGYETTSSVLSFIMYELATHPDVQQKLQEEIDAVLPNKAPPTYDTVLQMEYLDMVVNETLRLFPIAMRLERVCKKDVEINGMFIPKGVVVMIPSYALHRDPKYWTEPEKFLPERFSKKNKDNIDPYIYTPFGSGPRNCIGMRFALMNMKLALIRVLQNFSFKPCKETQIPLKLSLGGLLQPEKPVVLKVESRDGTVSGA

[3] = Clearance in rat at 2 to 10 mg/kg, iv; format: ADME, organism-based; parameters: dose 2-10 mg/kg, route intravenous; details: in vivo
[4] = Volume of distribution at steady state in rat at 2 to 10 mg/kg, iv; format: ADME, organism-based; parameters: dose 2-10 mg/kg, route intravenous; details: in vivo, read-out: Vdss
Mus musculus = assay: Hepatoprotective activity in BALB/c mouse assessed as inhibition of concanavalin A-induced ALT elevation at 30 mg/kg, ip administered 1 hr prior Con A challenge; format: functional; details: route intraperitoneal
Rattus norvegicus = assay: Antiischemic activity in Lewis rat ischemia reperfusion model assessed as increase in survival rate at 3 mg/kg, iv bolus administered 15 mins before ischemia challenge relative to control; format: functional
[5] = Half life in rat at 2 to 10 mg/kg, iv bolus; format: ADME, organism-based; parameters: dose 2-10 mg/kg, route intravenous; details: in vivo
[6] = Clearance in dog at 1 mg/kg, iv bolus; format: ADME, organism-based, Canis lupus familiaris; parameters: dose 1 mg/kg, route intravenous; details: in vivo
[7] = AUC in dog at 1 mg/kg, iv bolus; format: ADME, organism-based, Canis lupus familiaris; parameters: dose 1 mg/kg, route intravenous; details: plasma
[8] = Half life in dog at 1 mg/kg, iv bolus; format: ADME, organism-based, Canis lupus familiaris; parameters: dose 1 mg/kg, route intravenous; details: in vivo
[9] = AUC in cynomolgus monkey at 1 mg/kg, iv bolus; format: ADME, organism-based, Macaca fascicularis; parameters: dose 1 mg/kg, route intravenous; details: plasma
[10] = Half life in cynomolgus monkey at 1 mg/kg, iv bolus; format: ADME, organism-based, Macaca fascicularis; parameters: dose 1 mg/kg, route intravenous; details: in vivo
Cytochrome P450 1A2 = molecular target: T2, Cytochrome P450 1A2 (Homo sapiens, UniProt P05177); assay: Inhibition of recombinant CYP1A2 up to 30 uM; format: ADME; details: recombinant enzyme
T2 sequence (P05177 whole entry): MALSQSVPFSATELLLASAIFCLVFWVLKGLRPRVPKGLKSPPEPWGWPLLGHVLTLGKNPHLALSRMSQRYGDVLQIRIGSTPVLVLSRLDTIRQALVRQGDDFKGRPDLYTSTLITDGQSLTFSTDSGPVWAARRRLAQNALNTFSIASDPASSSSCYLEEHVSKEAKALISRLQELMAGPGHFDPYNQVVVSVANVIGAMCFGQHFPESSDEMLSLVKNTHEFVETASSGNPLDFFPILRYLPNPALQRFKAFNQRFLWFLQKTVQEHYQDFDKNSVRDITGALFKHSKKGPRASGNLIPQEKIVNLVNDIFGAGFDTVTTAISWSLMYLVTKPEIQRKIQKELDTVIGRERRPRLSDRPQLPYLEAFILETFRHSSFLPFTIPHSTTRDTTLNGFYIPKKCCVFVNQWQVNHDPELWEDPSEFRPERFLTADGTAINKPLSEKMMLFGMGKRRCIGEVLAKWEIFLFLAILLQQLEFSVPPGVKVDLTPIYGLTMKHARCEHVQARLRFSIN

Cytochrome P450 2C19 = Cytochrome P450 2C19 (Homo sapiens, UniProt P33261); assay: Inhibition of recombinant CYP2C19 up to 30 uM; format: ADME; details: recombinant enzyme
Sequence of Cytochrome P450 2C19 (P33261 whole entry): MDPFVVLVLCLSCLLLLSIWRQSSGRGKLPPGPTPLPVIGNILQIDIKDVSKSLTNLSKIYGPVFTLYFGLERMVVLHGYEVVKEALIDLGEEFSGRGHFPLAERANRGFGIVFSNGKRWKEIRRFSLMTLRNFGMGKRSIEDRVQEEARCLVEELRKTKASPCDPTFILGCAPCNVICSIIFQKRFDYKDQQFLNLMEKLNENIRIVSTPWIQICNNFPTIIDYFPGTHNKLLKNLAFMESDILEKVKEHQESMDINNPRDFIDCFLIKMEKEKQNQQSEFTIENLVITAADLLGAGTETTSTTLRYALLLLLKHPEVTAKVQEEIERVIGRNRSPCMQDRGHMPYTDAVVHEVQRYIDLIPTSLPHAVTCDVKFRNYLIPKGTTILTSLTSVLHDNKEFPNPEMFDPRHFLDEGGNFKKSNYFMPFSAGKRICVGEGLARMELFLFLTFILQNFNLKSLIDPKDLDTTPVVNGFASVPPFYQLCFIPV

Cytochrome P450 3A4 [11] = molecular target: T1, Cytochrome P450 3A4; assay: Inhibition of CYP3A4 in human liver microsomes up to 30 uM; format: ADME, Microsome
Hepatocyte = assay: Drug metabolism in rat hepatocytes after 60 mins; format: ADME, cell-based; details: 1 h
Plasma = assay: Drug metabolism in rat plasma at 2 mg/kg after 60 mins; format: ADME, organism-based; parameters: dose 2 mg/kg; details: in vivo, 1 h
Salmonella typhimurium = assay: Induction of mutagenesis in Salmonella Typhimurium by Ames test; format: toxicity, organism-based; details: salmonella enterica subsp. enterica serovar typhimurium

## N[C@H]1CC[C@H](Nc2ncc3nc(Nc4ccc(F)cc4F)n(C4CCCC4)c3n2)CC1
[1]
  remaining at 0.5 h, 3 µM: 92%
Cytochrome P450 3A4 [2]
  inhibition (INH): Not Active
[3]
  clearance: 66 mL/min/kg
[4]
  Vd: 75 L/kg
Mus musculus
  inhibition in vivo at 30 mg/kg: 41%
Rattus norvegicus
  survival at 3 mg/kg: 60%
[5]
  half-life: 17 h
[6]
  clearance: 28 mL/min/kg
[7]
  AUC: 1.2 µM·h
[8]
  half-life: 17 h
[9]
  AUC: 7 µM·h
[10]
  half-life: 37 h
Cytochrome P450 1A2
  inhibition (INH): Not Active
Cytochrome P450 2C19
  inhibition (INH): Not Active
Cytochrome P450 3A4 [11]
  inhibition (INH): Not Active
Hepatocyte
  Drug metabolism: Not Active
Plasma
  Drug metabolism: Not Active
Salmonella typhimurium
  Activity: Non-toxic
